Consider 1 compound from patent US20220313651A1, “INHIBITORS OF ZIKA VIRUS INFECTION” (priority 2019, published 2022).

Experiment [1] has as its system ZIKV human strain R116265 (2016/Mexico). As to the kind of experiment: Plaque reduction inhibition assay in Vero E6 cells, ZIKV R116265. Conditions: Table 7, gossypol derivatives, read-out: ZIKV strains IC50, R116265. The format is cell-based, Zika virus (ZIKV). The source says:
Vero E6 and LLC-MK2 cells were maintained in Dulbecco's Modified Eagle Medium (DMEM) supplemented with 8% fetal bovine serum (FBS) and penicillin and streptomycin (P/S). C6/36 cells were maintained in Eagle's Minimal Essential Medium (EMEM) supplemented with 5% FBS and P/S. ZIKV strains, including human strains PAN2016 (2016/Panama), R116265 (2016/Mexico), PAN2015 (2015/Panama), FLR (2015/Colombia), R103451 (2015/Honduras), PRVABC59 (2015/Puerto Rico), PLCal_ZV (2013/Thailand), and IbH 30656 (1968/Nigeria), mosquito strain MEX 2-81 (2016/Mexico), and rhesus macaque strain MR 766 (1947/Uganda), were used in the studies. These ZIKV strains were cultured in Vero E6 cells, and viral titers were detected by a standard plaque-forming assay. DENV human strains, including type 1: DENV-1-V1792 (2007/Vietnam), type 2: DENV-2-V594 (2006/Puerto Rico), type 3: DENV-3-V1043 (2006/Puerto Rico), and type 4: DENV-4-PR 06-65-740 (2006/Puerto Rico), were cultured in C6/36 cells, and the viral titers were determined by plaque-forming assay as described above.
A plaque reduction inhibition assay was carried out to measure the inhibitory activity of Z-medicaments against infections of ZIKV and DENV. […] The compound-virus mixtures were then transferred to Vero E6 cells (10^5/well) and incubated at 37° C. for 1 h. […] The cells were washed thoroughly with PBS, and overlaid with DMEM containing 1% carboxymethyl cellulose and 2% FBS, followed by in vitro culture at 37° C. for 4-5 days and then staining with 0.5% crystal violet.
After removal of the unbound compounds by centrifugation after addition of 3% PEG-6000, ZIKV was incubated with Vero E6 cells at 37° C. for 1 h. The cells were then washed with PBS, overlaid with DMEM containing 1% carboxymethyl cellulose and 2% FBS, and cultured at 37° C. for 4-5 days, followed by staining with 0.5% crystal violet.

The target in experiment [2] is T1, binding between ZIKV EDIII and EDI/II-specific mAb ZKA78 (Zika virus, UniProt Q32ZE1, D679E/I627V/V603I/V629A).
T1 construct: human Fc (C)
T1 sequence (Q32ZE1 584-695 V603I/I627V/V629A/D679E): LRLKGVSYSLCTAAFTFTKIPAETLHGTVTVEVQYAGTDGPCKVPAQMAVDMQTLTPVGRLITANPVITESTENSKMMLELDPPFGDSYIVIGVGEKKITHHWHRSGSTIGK
As to the kind of experiment: ELISA competition, control EDI/II-specific mAb ZKA78. To be noted: ZKA78 does not bind EDIII. The protocol: ELISA was also used to determine the ability of ST087010 in inhibition of the binding between ZIKV EDIII and EDIII-specific human mAbs (SMZAb5, ZKA64-LALA, ZV-67, or Z004) or EDI/II-specific human mAb (ZKA78) control. […] The plates were then sequentially incubated with HRP-conjugated anti-human IgG-Fab antibody and TMB substrate, followed by detection of A450 values. Percent inhibition (% inhibition) of compounds was calculated based on the ELISA results, and IC50 was obtained […].
(An ELISA detects its analyte on a solid surface through an enzyme-linked reagent.)

Experiment [3] concerns ZIKV human strain R116265. As to the kind of experiment: ZIKV vertical transmission in pregnant Ifnar1-/- mice. To be noted: 20 mg/kg i.p. The format is in vivo. The protocol:
Pregnant mice (at embryonic day (E) 12-14) were i.p. treated with ST087010 (20 mg/kg) or DMSO (control) 12 h before and 6, 24 and 48 after infection with ZIKV human strain R116265 (10^3 PFU/mouse). Viral titers were detected, by plaque assay, in sera (FIG. 9A), placenta (FIG. 9B), fetal brain (FIG. 9C), and amniotic fluid (FIG. 9D) at 5 days post infection (dpi). The data are expressed as mean±s.e.m. of mice in each group (n=5), and significant differences among different groups are shown. The detection limit is 25 PFU/ml (for sera and amniotic fluid), or 25 PFU/g (for placenta and fetal brain). Representative images of morphology of mouse uteri and fetuses at 5 dpi are shown. FIG. 9E depicts E17-19 uteri from pregnant mice challenged at E12-14. Fetal morphology (FIG. 9F) and fetal size (FIG. 9G) were detected. ZIKV or caspase-3 signals were measured in placentas by immunofluorescence staining (FIG. 9H). ZIKV and caspase-3 were stained with anti-ZIKV and anti-active caspase-3 antibodies, respectively. Nuclei were stained with DAPI. Representative images of immunofluorescence staining are shown. Magnification, 63×, and scale bar 10 μm.
ST087010 was evaluated for protection against ZIKV-caused fetal damage and death in pregnant Ifnar1^−/− mice. Briefly, groups of 5 pregnant mice (10- to 12-weeks old, E12-14) were injected intraperitoneally with ST087010 (20 mg/kg of body weight), or DMSO (control) 12 h before and 6, 24 and 48 h after i.p. infection with ZIKV (human strain R116265, 10^3 PFU). Five days post-infection, mice were sacrificed; viral titers were determined using plaque assay in sera, placenta, fetal brain and amniotic fluid, and uteri and fetuses were evaluated for morphological and size changes. Placenta was also assessed for apoptosis and viral replication by immunofluorescence staining.
Immunofluorescence staining was carried out to detect ZIKV and caspase-3 signals in ZIKV-infected mouse tissues. […] The slides were analyzed using a confocal microscope (Zeiss LSM 880) and ZEN software, and fluorescent signals were quantified by ImageJ software. […]

By IC50 is commonly meant the concentration that inhibits the measured activity by half. With `Cc1cc2c(C(C)C)c(O)c(O)c(/C=N/n3c(=O)[nH][nH]c3=O)c2c(O)c1-c1c(C)cc2c(C(C)C)c(O)c(O)c(/C=N/n3c(=O)[nH][nH]c3=O)c2c1O` [ST087010], in experiment [1], the IC50 was found to be 2910 ± 70 nM. For the same compound, in experiment [2], the “Effect on binding of EDI/II-specific mAb ZKA78 (control)” value is “no observable effect”. Besides, the “ZIKV+ or caspase-3 signals in placental tissues” value in experiment [3] (ZIKV R116265, immunofluorescence, vs DMSO) is “undetectable or diminished”. Also, in experiment [3] (pregnant mice E12-14, ZIKV R116265 10^3 PFU, 5 dpi), the “Condition of fetuses and uteri morphology” value is given as “all in good condition”. Besides, the “Viral titers in sera, placenta, fetal brain and amniotic fluid” value in experiment [3] (pregnant mice E12-14, ZIKV R116265 10^3 PFU, 5 dpi, vs DMSO) is on record as “significantly reduced”.
